Converted amounts (≈) assume the structure as drawn.
Columns and labels:
Assay type in all cases: functional
Pseudomonas aeruginosa [1] = experiment: Antibacterial activity against Pseudomonas aeruginosa ATCC 27853 assessed as bacterial growth inhibition incubated for 24 hrs by broth microdilution method
Pseudomonas aeruginosa [2] = experiment: Antibacterial activity against Pseudomonas aeruginosa assessed as bacterial growth inhibition incubated for 24 hrs by broth microdilution method
Klebsiella pneumoniae = experiment: Antibacterial activity against Klebsiella pneumoniae assessed as bacterial growth inhibition incubated for 24 hrs by broth microdilution method
Enterococcus faecalis = experiment: Antibacterial activity against Enterococcus faecalis assessed as bacterial growth inhibition incubated for 24 hrs by broth microdilution method
Staphylococcus aureus [3] = experiment: Antibacterial activity against methicillin-resistant Staphylococcus aureus assessed as bacterial growth inhibition incubated for 24 hrs by broth microdilution method
Acinetobacter baumannii = experiment: Antibacterial activity against Acinetobacter baumannii assessed as bacterial growth inhibition incubated for 24 hrs by broth microdilution method
Staphylococcus aureus [4] = experiment: Antibacterial activity against Staphylococcus aureus assessed as bacterial growth inhibition incubated for 24 hrs by broth microdilution method
Staphylococcus aureus [5] = experiment: Antibacterial activity against Staphylococcus aureus ATCC 29213 assessed as bacterial growth inhibition incubated for 24 hrs by broth microdilution method
Escherichia coli [6] = experiment: Antibacterial activity against Escherichia coli ATCC 25922 assessed as bacterial growth inhibition incubated for 24 hrs by broth microdilution method
Staphylococcus aureus [7] = experiment: Antibacterial activity against Staphylococcus aureus ATCC 25923 assessed as bacterial growth inhibition incubated for 24 hrs by broth microdilution method
Escherichia coli [8] = experiment: Antibacterial activity against Escherichia coli assessed as bacterial growth inhibition incubated for 24 hrs by broth microdilution method

Row | SMILES | MIC (Pseudomonas aeruginosa [1]) | MIC (Pseudomonas aeruginosa [2]) | MIC (Klebsiella pneumoniae) | MIC (Enterococcus faecalis) | MIC (Staphylococcus aureus [3]) | MIC (Acinetobacter baumannii) | MIC (Staphylococcus aureus [4]) | MIC (Staphylococcus aureus [5]) | MIC (Escherichia coli [6]) | MIC (Staphylococcus aureus [7]) | MIC (Escherichia coli [8])
1 | CCN(CCO)c1nccc(-n2cncn2)n1 | 1090 µM (≈ 256 µg/mL) | 547 µM (≈ 128 µg/mL) | 1090 µM (≈ 256 µg/mL) | 1090 µM (≈ 256 µg/mL) | 1090 µM (≈ 256 µg/mL) | 1090 µM (≈ 256 µg/mL) | 1090 µM (≈ 256 µg/mL) | 1090 µM (≈ 256 µg/mL) | 547 µM (≈ 128 µg/mL) | 1090 µM (≈ 256 µg/mL) | 1090 µM (≈ 256 µg/mL)
2 | O=[N+]([O-])c1cn(-c2ccnc(N(CCO)CCO)n2)cn1 | 435 µM (≈ 128 µg/mL) | 435 µM (≈ 128 µg/mL) | 870 µM (≈ 256 µg/mL) | 870 µM (≈ 256 µg/mL) | 870 µM (≈ 256 µg/mL) | – | 435 µM (≈ 128 µg/mL) | 870 µM (≈ 256 µg/mL) | 870 µM (≈ 256 µg/mL) | 435 µM (≈ 128 µg/mL) | 435 µM (≈ 128 µg/mL)
3 | CN(C)c1nccc(-n2cncn2)n1 | 1350 µM (≈ 256 µg/mL) | 337 µM (≈ 64.1 µg/mL) | 1350 µM (≈ 256 µg/mL) | 1350 µM (≈ 256 µg/mL) | 1350 µM (≈ 256 µg/mL) | 1350 µM (≈ 256 µg/mL) | 1350 µM (≈ 256 µg/mL) | 1350 µM (≈ 256 µg/mL) | 673 µM (≈ 128 µg/mL) | 1350 µM (≈ 256 µg/mL) | 1350 µM (≈ 256 µg/mL)
4 | O=C1c2cccc3c(N4CCN(c5nccc(-n6cncn6)n5)CC4)ccc(c23)C(=O)N1C(CO)CO | 512 µM (≈ 256 µg/mL) | 512 µM (≈ 256 µg/mL) | 226 µM (≈ 113 µg/mL) | 256 µM (≈ 128 µg/mL) | 512 µM (≈ 256 µg/mL) | 512 µM (≈ 256 µg/mL) | 512 µM (≈ 256 µg/mL) | 512 µM (≈ 256 µg/mL) | 255 µM (≈ 128 µg/mL) | 64 µM (≈ 32 µg/mL) | 512 µM (≈ 256 µg/mL)
5 | O=c1ccc2c(CN3CCN(c4nccc(-n5cncn5)n4)CC3)cc(O)cc2o1 | 632 µM (≈ 256 µg/mL) | 316 µM (≈ 128 µg/mL) | 632 µM (≈ 256 µg/mL) | 316 µM (≈ 128 µg/mL) | 316 µM (≈ 128 µg/mL) | 158 µM (≈ 64.1 µg/mL) | 316 µM (≈ 128 µg/mL) | 632 µM (≈ 256 µg/mL) | 633 µM (≈ 257 µg/mL) | 316 µM (≈ 128 µg/mL) | 632 µM (≈ 256 µg/mL)
6 | CN(CCO)c1nccc(-n2cncn2)n1 | 1160 µM (≈ 256 µg/mL) | 291 µM (≈ 64.1 µg/mL) | 1160 µM (≈ 256 µg/mL) | 582 µM (≈ 128 µg/mL) | 1160 µM (≈ 256 µg/mL) | 1360 µM (≈ 300 µg/mL) | 1160 µM (≈ 256 µg/mL) | 1160 µM (≈ 256 µg/mL) | 582 µM (≈ 128 µg/mL) | 1160 µM (≈ 256 µg/mL) | 1160 µM (≈ 256 µg/mL)
7 | Cc1cn(-c2nccc(N(CCO)CCO)n2)c(C)n1 | 924 µM (≈ 256 µg/mL) | 462 µM (≈ 128 µg/mL) | 924 µM (≈ 256 µg/mL) | 58 µM (≈ 16.1 µg/mL) | 924 µM (≈ 256 µg/mL) | 924 µM (≈ 256 µg/mL) | 924 µM (≈ 256 µg/mL) | 924 µM (≈ 256 µg/mL) | 924 µM (≈ 256 µg/mL) | 924 µM (≈ 256 µg/mL) | 924 µM (≈ 256 µg/mL)
8 | Nc1ccc(S(=O)(=O)Nc2ncccn2)cc1 [SULFADIAZINE] | 64 µM (≈ 16 µg/mL) | 31 µM (≈ 7.76 µg/mL) | 1020 µM (≈ 256 µg/mL) | 64 µM (≈ 16 µg/mL) | 256 µM (≈ 64.1 µg/mL) | 64 µM (≈ 16 µg/mL) | 256 µM (≈ 64.1 µg/mL) | 54 µM (≈ 13.5 µg/mL) | 64 µM (≈ 16 µg/mL) | 129 µM (≈ 32.3 µg/mL) | 64 µM (≈ 16 µg/mL)
9 | CCc1nccn1-c1nccc(N(CCO)CCO)n1 | 924 µM (≈ 256 µg/mL) | 924 µM (≈ 256 µg/mL) | 1850 µM (≈ 512 µg/mL) | 924 µM (≈ 256 µg/mL) | 924 µM (≈ 256 µg/mL) | 924 µM (≈ 256 µg/mL) | 924 µM (≈ 256 µg/mL) | 924 µM (≈ 256 µg/mL) | 924 µM (≈ 256 µg/mL) | 924 µM (≈ 256 µg/mL) | 924 µM (≈ 256 µg/mL)
10 | CC(C)N(c1nccc(-n2cncn2)n1)C(C)C | 520 µM (≈ 128 µg/mL) | 520 µM (≈ 128 µg/mL) | 1040 µM (≈ 256 µg/mL) | 1040 µM (≈ 256 µg/mL) | 520 µM (≈ 128 µg/mL) | 1040 µM (≈ 256 µg/mL) | 1040 µM (≈ 256 µg/mL) | 1040 µM (≈ 256 µg/mL) | 1040 µM (≈ 256 µg/mL) | 520 µM (≈ 128 µg/mL) | 1040 µM (≈ 256 µg/mL)
11 | OCCN(CCO)c1nccc(-n2ccnc2)n1 | 1030 µM (≈ 256 µg/mL) | 1030 µM (≈ 256 µg/mL) | 1030 µM (≈ 256 µg/mL) | 1030 µM (≈ 256 µg/mL) | 1030 µM (≈ 256 µg/mL) | 1030 µM (≈ 256 µg/mL) | 1030 µM (≈ 256 µg/mL) | 1030 µM (≈ 256 µg/mL) | 1030 µM (≈ 256 µg/mL) | 1030 µM (≈ 256 µg/mL) | 1030 µM (≈ 256 µg/mL)
12 | OCCN(CCO)c1ccnc(-n2ccnc2-c2ccccc2)n1 | 787 µM (≈ 256 µg/mL) | 197 µM (≈ 64.1 µg/mL) | 787 µM (≈ 256 µg/mL) | 787 µM (≈ 256 µg/mL) | 1580 µM (≈ 512 µg/mL) | 394 µM (≈ 128 µg/mL) | 787 µM (≈ 256 µg/mL) | 787 µM (≈ 256 µg/mL) | 1580 µM (≈ 512 µg/mL) | 394 µM (≈ 128 µg/mL) | 787 µM (≈ 256 µg/mL)
13 | CCCc1nccn1-c1ccnc(N(CCO)CCO)n1 | 879 µM (≈ 256 µg/mL) | 879 µM (≈ 256 µg/mL) | 379 µM (≈ 110 µg/mL) | 879 µM (≈ 256 µg/mL) | 879 µM (≈ 256 µg/mL) | 879 µM (≈ 256 µg/mL) | 879 µM (≈ 256 µg/mL) | 879 µM (≈ 256 µg/mL) | 879 µM (≈ 256 µg/mL) | 879 µM (≈ 256 µg/mL) | 879 µM (≈ 256 µg/mL)
14 | O=C(CCCCl)N1CCN(c2nccc(-n3cncn3)n2)CC1 | 382 µM (≈ 128 µg/mL) | 764 µM (≈ 257 µg/mL) | 382 µM (≈ 128 µg/mL) | 382 µM (≈ 128 µg/mL) | 382 µM (≈ 128 µg/mL) | 382 µM (≈ 128 µg/mL) | 764 µM (≈ 257 µg/mL) | 764 µM (≈ 257 µg/mL) | 382 µM (≈ 128 µg/mL) | 382 µM (≈ 128 µg/mL) | 382 µM (≈ 128 µg/mL)
15 | CCCc1nccn1-c1nccc(N(CCO)CCO)n1 | 879 µM (≈ 256 µg/mL) | 879 µM (≈ 256 µg/mL) | 879 µM (≈ 256 µg/mL) | 879 µM (≈ 256 µg/mL) | 879 µM (≈ 256 µg/mL) | 879 µM (≈ 256 µg/mL) | 879 µM (≈ 256 µg/mL) | 879 µM (≈ 256 µg/mL) | 879 µM (≈ 256 µg/mL) | 879 µM (≈ 256 µg/mL) | 879 µM (≈ 256 µg/mL)
